In patent publication US20260317324A1, “BIFUNCTIONAL COMPOUNDS FOR DEGRADING BRAF VIA UBIQUITIN PROTEOSOME PATHWAY” (Nurix Therapeutics, Inc., priority 2023, published 2026):

How the values were obtained:
Format in all cases: cell-based
BRAF D594G = target: T1, BRAF D594G (Homo sapiens, UniProt P15056, D594G); test: BRAF HiBiT degradation assay, C-terminal HiBiT-tagged BRAF D594G overexpressed in HCT-116 BRAF−/− cells (clone 63), Nano-Glo HiBiT Lytic assay
T1 construct: Horizon Discovery (HCT-116 BRAF−/− cells); host or cells: HCT-116 BRAF−/− cells, clone 63, lentiviral transduction
Procedure, shortened: (§1)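 HCT-116 BRAF−/− cells stably expressing the tagged mutant were seeded at 3,000 cells/well and grown 24 h at 37 °C before an 11-point half-log series from 1 μM to 0.01 nM, run in duplicate at 0.2% DMSO. Lytic HiBiT luminescence gave % protein remaining versus DMSO controls; DC50 was the fitted concentration at 50%.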

BRAF G466V = target: T2, BRAF G466V (Homo sapiens, UniProt P15056, G466V); test: BRAF HiBiT degradation assay, C-terminal HiBiT-tagged BRAF G466V overexpressed in HCT-116 BRAF−/− cells (clone 8), Nano-Glo HiBiT Lytic assay
T2 construct: Horizon Discovery (HCT-116 BRAF−/− cells); host or cells: HCT-116 BRAF−/− cells, clone 8, lentiviral transduction
Procedure, shortened: as §1

BRAF G469A = target: T3, BRAF G469A (Homo sapiens, UniProt P15056, G469A); test: BRAF HiBiT degradation assay, C-terminal HiBiT-tagged BRAF G469A overexpressed in HCT-116 BRAF−/− cells (clone 34), Nano-Glo HiBiT Lytic assay
T3 construct: Horizon Discovery (HCT-116 BRAF−/− cells); host or cells: HCT-116 BRAF−/− cells, clone 34, lentiviral transduction
Procedure, shortened: as §1

BRAF V600E = target: T4, BRAF V600E (Homo sapiens, UniProt P15056, V600E); test: BRAF HiBiT degradation assay, C-terminal HiBiT-tagged BRAF V600E A375 cells (clone 1F10), Nano-Glo HiBiT Lytic assay; conditions: for Dmax: A-375
T4 construct: endogenous C-terminal HiBiT fusion tag on BRAF V600E allele; endogenous in cells; host or cells: A375 clone 1F10 (CRISPR-Cas9 knock-in of the HiBiT tag; parental A375 from ATCC)
Procedure, shortened: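 A375 cells with CRISPR knock-in C-terminal HiBiT on endogenous BRAF V600E (clone 1F10) were seeded and cultured 24 h at 37 °C, then dosed with an 11-point half-log series (1 μM to 0.01 nM, duplicate, 0.2% DMSO). Lytic HiBiT luminescence gave % protein remaining; DC50 was the fitted concentration at 50%.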

[1] = BRAF D594G (Class 3), HCT-116 BRAF−/− cells, DC50 at 50% degradation
[2] = BRAF D594G (Class 3), HCT-116 BRAF−/− cells, observed Dmax relative to DMSO control
[3] = BRAF G466V (Class 3), HCT-116 BRAF−/− cells, DC50 at 50% degradation
[4] = BRAF G466V (Class 3), HCT-116 BRAF−/− cells, observed Dmax relative to DMSO control
[5] = BRAF G469A (Class 2), HCT-116 BRAF−/− cells, DC50 at 50% degradation
[6] = BRAF G469A (Class 2), HCT-116 BRAF−/− cells, observed Dmax relative to DMSO control
[7] = A375 (BRAF V600E, Class 1), DC50 at 50% degradation
[8] = A375 (BRAF V600E, Class 1), observed Dmax, % protein degraded relative to DMSO control
[9] = BRAF D594G, DC50 at 50%: fitted conc. at Y=50
[10] = HCT-116, BRAF D594G, percentage protein degraded at maximal compound effect relative to DMSO
[11] = BRAF G466V, DC50 at 50%: fitted conc. at Y=50
[12] = HCT-116, BRAF G466V, percentage protein degraded at maximal compound effect relative to DMSO
[13] = Class 2, BRAF G469A, DC50 at 50%: fitted conc. at Y=50
[14] = HCT-116, Class 2, BRAF G469A, percentage protein degraded at maximal compound effect relative to DMSO
[15] = A375 (BRAF V600E), DC50 at 50%: fitted conc. at Y=50
[16] = A375 (BRAF V600E), percentage protein degraded at maximal compound effect relative to DMSO

T3 sequence (P15056 whole entry G469A): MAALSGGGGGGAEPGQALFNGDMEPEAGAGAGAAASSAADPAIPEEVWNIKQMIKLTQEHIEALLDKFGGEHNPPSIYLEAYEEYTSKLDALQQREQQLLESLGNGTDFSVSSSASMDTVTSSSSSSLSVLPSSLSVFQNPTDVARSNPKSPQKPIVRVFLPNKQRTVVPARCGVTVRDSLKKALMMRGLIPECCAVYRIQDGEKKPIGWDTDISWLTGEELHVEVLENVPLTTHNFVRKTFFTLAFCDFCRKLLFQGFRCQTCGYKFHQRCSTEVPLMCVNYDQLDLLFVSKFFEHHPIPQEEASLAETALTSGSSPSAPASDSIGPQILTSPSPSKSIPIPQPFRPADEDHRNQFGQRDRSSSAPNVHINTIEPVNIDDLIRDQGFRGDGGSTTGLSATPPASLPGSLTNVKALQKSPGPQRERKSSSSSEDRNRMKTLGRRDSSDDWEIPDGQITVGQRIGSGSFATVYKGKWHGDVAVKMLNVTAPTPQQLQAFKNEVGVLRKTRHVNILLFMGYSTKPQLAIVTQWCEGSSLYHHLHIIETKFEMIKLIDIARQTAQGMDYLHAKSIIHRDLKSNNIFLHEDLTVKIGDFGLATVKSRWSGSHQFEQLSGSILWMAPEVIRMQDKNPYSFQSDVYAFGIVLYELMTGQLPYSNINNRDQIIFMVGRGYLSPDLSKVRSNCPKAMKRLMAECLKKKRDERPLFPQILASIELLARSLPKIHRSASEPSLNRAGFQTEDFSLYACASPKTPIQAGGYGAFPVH
T4 sequence (P15056 whole entry V600E, the tested form may be a part): as the sequence (P15056 whole entry G469A) above, with A469G, V600E counted along it
T2 sequence (P15056 whole entry G466V): as the sequence (P15056 whole entry G469A) above, with G466V, A469G counted along it
T1 sequence (P15056 whole entry D594G): as the sequence (P15056 whole entry G469A) above, with A469G, D594G counted along it

| Compound | DC50 (BRAF D594G; [1]) | Dmax (BRAF D594G; [2]) | DC50 (BRAF G466V; [3]) | Dmax (BRAF G466V; [4]) | DC50 (BRAF G469A; [5]) | Dmax (BRAF G469A; [6]) | DC50 (BRAF V600E; [7]) | Dmax (BRAF V600E; [8]) | DC50 (BRAF D594G; [9]) | Dmax (BRAF D594G; [10]) | DC50 (BRAF G466V; [11]) | Dmax (BRAF G466V; [12]) | DC50 (BRAF G469A; [13]) | Dmax (BRAF G469A; [14]) | DC50 (BRAF V600E; [15]) | Dmax (BRAF V600E; [16]) |
| --- | --- | --- | --- | --- | --- | --- | --- | --- | --- | --- | --- | --- | --- | --- | --- | --- |
| C[C@@H]1CN(c2ccc(-n3cc(-c4cc(Cl)cc(NS(=O)(=O)N5CC[C@@H](F)C5)c4F)c(-c4ccncc4)n3)nc2)CCN1CC1CCN(c2ccc(C3CCC(=O)NC3=O)cn2)CC1 (mixture of isomers) [Compound 321, (3R)—N-[5-chloro-3-(1-{5-[(3R)-4-[(1-{5-[(3RS)-2,6-dioxopiperidin-3-yl]pyridin-2-yl}piperidin-4-yl)methyl]-3-methylpiperazin-1-yl]pyridin-2-yl}-3-(pyridin-4-yl)-1H-pyrazol-4-yl)-2-fluorophenyl]-3-fluoropyrrolidine-1-sulfonamide] | < 10 nM | > 70% | < 10 nM | > 70% | < 10 nM | > 70% | < 10 nM | > 70% | – | – | – | – | – | – | – | – |
| C[C@@H]1CN(c2ccc(-n3cc(-c4cc(Cl)cc(NS(=O)(=O)N5CCCC5)c4F)c(-c4ccncc4)n3)nc2)CCN1CC1CCN(c2ccc(C3CCC(=O)NC3=O)cn2)CC1 (mixture of isomers) [Compound 323, N-[5-chloro-3-(1-{5-[(3R)-4-[(1-{5-[(3RS)-2,6-dioxopiperidin-3-yl]pyridin-2-yl}piperidin-4-yl)methyl]-3-methylpiperazin-1-yl]pyridin-2-yl}-3-(pyridin-4-yl)-1H-pyrazol-4-yl)-2-fluorophenyl]pyrrolidine-1-sulfonamide] | < 10 nM | > 70% | < 10 nM | > 70% | < 10 nM | > 70% | < 10 nM | > 70% | – | – | – | – | – | – | – | – |
| CCCS(=O)(=O)Nc1cccc(-c2cn(-c3ccc(N4CCN(CC5CCN(c6ccc(C7CCC(=O)NC7=O)cn6)CC5)CC4)nc3)nc2-c2ccncc2)c1F (racemic) [Compound 3, Rac-N-{3-[1-(6-{4-[(1-{5-[(3R)-2,6-dioxopiperidin-3-yl]pyridin-2-yl}piperidin-4-yl)methyl]piperazin-1-yl}pyridin-3-yl)-3-(pyridin-4-yl)-1H-pyrazol-4-yl]-2-fluorophenyl}propane-1-sulfonamide] | – | – | – | – | – | – | – | – | 10 to 50 nM | 30 to 70% | 10 to 50 nM | 30 to 70% | > 500 nM | 30 to 70% | 50 to 500 nM | > 70% |
| CCCS(=O)(=O)Nc1cccc(-c2cn(C3CCN(C(=O)C4CCN(CC5CCN(c6ccc(C7CCC(=O)NC7=O)cn6)CC5)CC4)CC3)nc2-c2ccncc2)c1F (racemic) [Compound 6, Rac-N-{3-[1-(1-{1-[(1-{5-[(3R)-2,6-dioxopiperidin-3-yl]pyridin-2-yl}piperidin-4-yl)methyl]piperidine-4-carbonyl}piperidin-4-yl)-3-(pyridin-4-yl)-1H-pyrazol-4-yl]-2-fluorophenyl}propane-1-sulfonamide] | – | – | – | – | – | – | – | – | > 500 nM | 30 to 70% | > 500 nM | 30 to 70% | > 500 nM | < 30% | 10 to 50 nM | > 70% |

Other lines, results leading:

| DC50 (BRAF D594G; [1]) | Dmax (BRAF D594G; [2]) | DC50 (BRAF G466V; [3]) | Dmax (BRAF G466V; [4]) | DC50 (BRAF G469A; [5]) | Dmax (BRAF G469A; [6]) | DC50 (BRAF V600E; [7]) | Dmax (BRAF V600E; [8]) | DC50 (BRAF D594G; [9]) | Dmax (BRAF D594G; [10]) | DC50 (BRAF G466V; [11]) | Dmax (BRAF G466V; [12]) | DC50 (BRAF G469A; [13]) | Dmax (BRAF G469A; [14]) | DC50 (BRAF V600E; [15]) | Dmax (BRAF V600E; [16]) | Compound |
| --- | --- | --- | --- | --- | --- | --- | --- | --- | --- | --- | --- | --- | --- | --- | --- | --- |
| < 10 nM | > 70% | < 10 nM | > 70% | 10 to 50 nM | > 70% | < 10 nM | > 70% | – | – | – | – | – | – | – | – | CCC(C)S(=O)(=O)Nc1cc(Cl)cc(-c2cn(-c3ccc(N4CCN(CC5CCN(c6ccc([C@H]7CCC(=O)NC7=O)cn6)CC5)CC4)cc3)nc2-c2ccncc2)c1F (mixture of isomers) [Compound 327, (RS)—N-(5-chloro-3-(1-(4-(4-((1-(5-((R)-2,6-dioxopiperidin-3-yl)pyridin-2-yl)piperidin-4-yl)methyl)piperazin-1-yl)phenyl)-3-(pyridin-4-yl)-1H-pyrazol-4-yl)-2-fluorophenyl)butane-2-sulfonamide] |
| < 10 nM | > 70% | < 10 nM | > 70% | 10 to 50 nM | > 70% | < 10 nM | > 70% | – | – | – | – | – | – | – | – | CCC(C)S(=O)(=O)Nc1cc(Cl)cc(-c2cn(-c3ccc(N4CCN(CC5CCN(c6ccc([C@@H]7CCC(=O)NC7=O)cn6)CC5)CC4)cc3)nc2-c2ccncc2)c1F (mixture of isomers) [Compound 329, Rac-(R)—N-(5-chloro-3-(1-(4-(4-((1-(5-((S)-2,6-dioxopiperidin-3-yl)pyridin-2-yl)piperidin-4-yl)methyl)piperazin-1-yl)phenyl)-3-(pyridin-4-yl)-1H-pyrazol-4-yl)-2-fluorophenyl)butane-2-sulfonamide] |
| < 10 nM | 30 to 70% | < 10 nM | > 70% | 10 to 50 nM | 30 to 70% | < 10 nM | > 70% | – | – | – | – | – | – | – | – | CCC(C)S(=O)(=O)Nc1cc(Cl)cc(-c2cn(-c3ccc(N4CCN(CC5CCN(c6ccc([C@H]7CCC(=O)NC7=O)cc6)CC5)CC4)cc3)nc2-c2ccncc2)c1F (mixture of isomers) [Compound 330, (2RS)—N-{5-chloro-3-[1-(4-{4-[(1-{4-[(3R)-2,6-dioxopiperidin-3-yl]phenyl}piperidin-4-yl)methyl]piperazin-1-yl}phenyl)-3-(pyridin-4-yl)-1H-pyrazol-4-yl]-2-fluorophenyl}butane-2-sulfonamide] |
| < 10 nM | > 70% | < 10 nM | > 70% | 10 to 50 nM | > 70% | < 10 nM | > 70% | – | – | – | – | – | – | – | – | O=C1CCC(c2ccc(N3CCC(CN4CCN(c5ccc(-n6cc(-c7cc(Cl)cc(NS(=O)(=O)N8CC[C@@H](F)C8)c7F)c(-c7ccncc7)n6)c(F)c5)CC4)CC3)nc2)C(=O)N1 (mixture of isomers) [Compound 335, (3R)—N-{5-chloro-3-[1-(4-{4-[(1-{5-[(3RS)-2,6-dioxopiperidin-3-yl]pyridin-2-yl}piperidin-4-yl)methyl]piperazin-1-yl}-2-fluorophenyl)-3-(pyridin-4-yl)-1H-pyrazol-4-yl]-2-fluorophenyl}-3-fluoropyrrolidine-1-sulfonamide] |
| < 10 nM | > 70% | < 10 nM | > 70% | < 10 nM | > 70% | < 10 nM | > 70% | – | – | – | – | – | – | – | – | O=C1CCC(c2ccc(N3CCC(CN4CCN(c5ccc(-n6cc(-c7cc(Cl)cc(NS(=O)(=O)N8CC[C@@H](F)C8)c7F)c(-c7ccncc7)n6)cc5F)CC4)CC3)nc2)C(=O)N1 (mixture of isomers) [Compound 366, (3R)—N-{5-chloro-3-[1-(4-{4-[(1-{5-[(3RS)-2,6-dioxopiperidin-3-yl]pyridin-2-yl}piperidin-4-yl)methyl]piperazin-1-yl}-3-fluorophenyl)-3-(pyridin-4-yl)-1H-pyrazol-4-yl]-2-fluorophenyl}-3-fluoropyrrolidine-1-sulfonamide] |
| < 10 nM | > 70% | < 10 nM | > 70% | 10 to 50 nM | > 70% | < 10 nM | > 70% | – | – | – | – | – | – | – | – | C[C@@H]1CN(c2ccc(-n3cc(-c4cc(Cl)cc(NS(=O)(=O)N5CCCC5)c4F)c(-c4ccncc4)n3)c(F)c2)C[C@@H](C)N1CC1CCN(c2ccc(C3CCC(=O)NC3=O)cn2)CC1 (mixture of isomers) [Compound 382, N-(5-chloro-3-(1-(4-((3R,5R)-4-((1-(5-((RS)-2,6-dioxopiperidin-3-yl)pyridin-2-yl)piperidin-4-yl)methyl)-3,5-dimethylpiperazin-1-yl)-2-fluorophenyl)-3-(pyridin-4-yl)-1H-pyrazol-4-yl)-2-fluorophenyl)pyrrolidine-1-sulfonamide] |
